# Laboratory results reported in patent US9409907B2, “Inhibitor compounds” (Cancer Research Technology Limited, priority 2012, dated 2016).
# Target: full length MPS1 (Homo sapiens (Human), UniProt P33981)
# Test: Measurement of inhibition of MPS1 kinase (Caliper EZ reader mobility-shift enzyme assay)
# Format: biochemical
# Details: full length MPS1 12.5 nM or 3 nM, H236 peptide 5 μM, ATP 10 μM, 60 min at room temperature
# Description: Measurement of Inhibition of MPS1 Kinase
# The reaction was carried out for 60 min at room temperature and stopped by the addition of buffer (10 μl) containing 20 mM EDTA, 0.05% (v/v) Brij-35, in 0.1M HEPES-buffered saline (Free acid, Sigma, UK). The plate was read on a Caliper EZ reader II (Caliper Life Sciences).
# The % inhibition of the compounds is calculated relative to the means of selected control wells.
# Sequence of full length MPS1 (P33981 whole entry): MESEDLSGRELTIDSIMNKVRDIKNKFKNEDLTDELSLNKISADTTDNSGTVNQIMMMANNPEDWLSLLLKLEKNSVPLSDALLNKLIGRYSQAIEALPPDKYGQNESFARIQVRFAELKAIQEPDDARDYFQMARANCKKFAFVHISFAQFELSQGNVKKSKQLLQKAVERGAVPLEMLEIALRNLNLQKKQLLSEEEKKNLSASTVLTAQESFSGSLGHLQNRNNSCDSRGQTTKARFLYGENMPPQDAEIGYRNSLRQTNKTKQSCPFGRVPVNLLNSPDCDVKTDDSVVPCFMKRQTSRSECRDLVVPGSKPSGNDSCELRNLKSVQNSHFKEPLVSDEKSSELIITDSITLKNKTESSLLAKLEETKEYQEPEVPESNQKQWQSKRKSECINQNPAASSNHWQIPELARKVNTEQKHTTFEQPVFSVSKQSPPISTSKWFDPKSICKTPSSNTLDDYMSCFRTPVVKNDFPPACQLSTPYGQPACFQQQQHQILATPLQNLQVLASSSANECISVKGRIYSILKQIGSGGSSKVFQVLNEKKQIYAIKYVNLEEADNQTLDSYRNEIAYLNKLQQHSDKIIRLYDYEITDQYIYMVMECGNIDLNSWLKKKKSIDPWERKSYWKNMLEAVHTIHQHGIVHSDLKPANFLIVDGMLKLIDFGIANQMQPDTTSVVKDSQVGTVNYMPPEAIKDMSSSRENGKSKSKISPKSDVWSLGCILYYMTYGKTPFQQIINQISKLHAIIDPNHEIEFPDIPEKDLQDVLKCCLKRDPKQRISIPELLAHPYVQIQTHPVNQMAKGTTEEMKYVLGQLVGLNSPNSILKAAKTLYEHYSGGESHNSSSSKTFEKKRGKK
row,SMILES,IC50 [nM]
1,"COc1cc(-c2cnn(C)c2)ccc1Nc1ncc2ccnc(NCC3(C)CCOC3)c2n1 (racemic) [Example 117, N^2-(2-methoxy-4-(1-methyl-1H-pyrazol-4-yl)phenyl)-N^8-((3-methyltetrahydrofuran-3-yl)methyl)pyrido[3,4-d]pyrimidine-2,8-diamine]",3
2,"COc1cc(-c2cnn(C)c2)ccc1Nc1ncc2ccnc(N[S+]([O-])C(C)(C)C)c2n1 (racemic) [Example 143, (±)-N-(2-(2-methoxy-4-(1-methyl-1H-pyrazol-4-yl)phenylamino)pyrido[3,4-d]pyrimidin-8-yl)-2-methylpropane-2-sulfinamide]",5
3,"COc1cc(C(=O)N2CC(OC)C2)ccc1Nc1cc2c(-c3cnn(CCN(C)C)c3)cccc2cn1 [Example 1, (4-((5-(1-(2-(Dimethylamino)ethyl)-1H-pyrazol-4-yl)isoquinolin-3-yl)amino)-3-methoxyphenyl)(3-methoxyazetidin-1-yl)methanone]",61
4,"COc1cc(C(=O)N2CC(OC)C2)ccc1Nc1cc2c(-c3cncn3C)cccc2cn1 [Example 4, (3-methoxy-4-((5-(1-methyl-1H-imidazol-5-yl)isoquinolin-3-yl)amino)phenyl)(3-methoxyazetidin-1-yl)methanone]",112
5,"COc1cc(C(=O)N2CC(OC)C2)ccc1Nc1cc2c(-c3c(C)noc3C)cccc2cn1 [Example 5, (4-((5-(3,5-dimethylisoxazol-4-yl)isoquinolin-3-yl)amino)-3-methoxyphenyl)(3-methoxyazetidin-1-yl)methanone]",261
6,"Cc1ncc(-c2ccc(Nc3cc4c(-c5cnn(C)c5)cccc4cn3)c(Cl)c2)n1C [Example 11, N-(2-chloro-4-(1,2-dimethyl-1H-imidazol-5-yl)phenyl)-5-(1-methyl-1H-pyrazol-4-yl)isoquinolin-3-amine]",6
7,"COc1cc(C(=O)N2CC(OC)C2)ccc1Nc1cc2c(-c3ccn(C)n3)cccc2cn1 [Example 12, (3-methoxy-4-((5-(1-methyl-1H-pyrazol-3-yl)isoquinolin-3-yl)amino)phenyl)(3-methoxyazetidin-1-yl)methanone]",26
8,"COc1cc(C(=O)N2CC(OC)C2)ccc1Nc1cc2c(-c3cnn(C)c3C)cccc2cn1 [Example 13, (4-((5-(1,5-dimethyl-1H-pyrazol-4-yl)isoquinolin-3-yl)amino)-3-methoxyphenyl)(3-methoxyazetidin-1-yl)methanone]",12
9,"COc1cc(-c2cncn2C)ccc1Nc1cc2c(-c3cnn(C)c3)cccc2cn1 [Example 14, N-(2-methoxy-4-(1-methyl-1H-imidazol-5-yl)phenyl)-5-(1-methyl-1H-pyrazol-4-yl)isoquinolin-3-amine]",7
10,"COc1cc(C(=O)N2CC(OC)C2)ccc1Nc1cc2c(-c3cncnc3)cccc2cn1 [Example 15, (3-methoxy-4-((5-(pyrimidin-5-yl)isoquinolin-3-yl)amino)phenyl)(3-methoxyazetidin-1-yl)methanone]",98
11,"COc1cc(-c2cnn(C)c2)ccc1Nc1cc2c(-c3cnn(C)c3)cccc2cn1 [Example 16, N-(2-methoxy-4-(1-methyl-1H-pyrazol-4-yl)phenyl)-5-(1-methyl-1H-pyrazol-4-yl)isoquinolin-3-amine]",71
12,"COc1cc(-c2c(C)noc2C)ccc1Nc1cc2c(-c3cnn(C)c3)cccc2cn1 [Example 18, N-(4-(3,5-dimethylisoxazol-4-yl)-2-methoxyphenyl)-5-(1-methyl-1H-pyrazol-4-yl)isoquinolin-3-amine]",95
13,"COc1cc(C(=O)N2CC(OC)C2)ccc1Nc1cc2c(-c3cnn(C4CCNCC4)c3)cccc2cn1 [Example 20, (3-Methoxy-4-((5-(1-(piperidin-4-yl)-1H-pyrazol-4-yl)isoquinolin-3-yl)amino)phenyl)(3-methoxyazetidin-1-yl)methanone]",20

# Further molecules by falling IC50, results first:
row,IC50 [nM],SMILES
1,293,"CN1CCC(NC(=O)c2ccc(Nc3cc4c(-c5cnn(C)c5)cccc4cn3)c(OC(F)(F)F)c2)CC1 [Example 6, 4-((5-(1-methyl-1H-pyrazol-4-yl)isoquinolin-3-yl)amino)-N-(1-methylpiperidin-4-yl)-3-(trifluoromethoxy)benzamide]"
2,125,"COc1cc(C(=O)N2CC(OC)C2)ccc1Nc1cc2c(-c3cnn(C4CCN(C(=O)OC(C)(C)C)CC4)c3)cccc2cn1 [Example 3, tert-butyl 4-(4-(3-((2-methoxy-4-(3-methoxyazetidine-1-carbonyl)phenyl)-amino)isoquinolin-5-yl)-1H-pyrazol-1-yl)piperidine-1-carboxylate]"
3,51,"Cn1cc(-c2cccc3cnc(Nc4ccc(-c5cncn5C)cc4Cl)cc23)cn1 [Example 17, N-(2-chloro-4-(1-methyl-1H-imidazol-5-yl)phenyl)-5-(1-methyl-1H-pyrazol-4-yl)isoquinolin-3-amine]"
4,31,"COc1cc(C(=O)N2CC(OC)C2)ccc1Nc1cc2c(-c3cnn(C4CCN(C)CC4)c3)cccc2cn1 [Example 19, (3-Methoxy-4-((5-(1-(1-methylpiperidin-4-yl)-1H-pyrazol-4-yl)isoquinolin-3-yl)amino)phenyl)(3-methoxyazetidin-1-yl)methanone]"
5,27,"COc1cc(C(=O)N2CC(OC)C2)ccc1Nc1cc2c(-c3cn(C)nc3C)cccc2cn1 [Example 8, (4-((5-(1,3-dimethyl-1H-pyrazol-4-yl)isoquinolin-3-yl)amino)-3-methoxyphenyl)(3-methoxyazetidin-1-yl)methanone]"
6,22,"COc1cc(C(=O)N2CC(OC)C2)ccc1Nc1cc2c(-c3ccnn3C)cccc2cn1 [Example 9, (3-methoxy-4-((5-(1-methyl-1H-pyrazol-5-yl)isoquinolin-3-yl)amino)phenyl)(3-methoxyazetidin-1-yl)methanone]"
7,14,"COCCn1cc(-c2cccc3cnc(Nc4ccc(C(=O)N5CC(OC)C5)cc4OC)cc23)cn1 [Example 2, (3-methoxy-4-((5-(1-(2-methoxyethyl)-1H-pyrazol-4-yl)isoquinolin-3-yl)amino)phenyl)(3-methoxyazetidin-1-yl)methanone]"
8,11,"COc1cc(C(=O)N2CC(OC)C2)ccc1Nc1cc2c(-c3cnn(C(C)C)c3)cccc2cn1 [Example 7, (4-((5-(1-isopropyl-1H-pyrazol-4-yl)isoquinolin-3-yl)amino)-3-methoxyphenyl)(3-methoxyazetidin-1-yl)methanone]"
9,7,"COc1cc(-c2cnn(C)c2)ccc1Nc1ncc2ccnc(NC(C)CO)c2n1 (racemic) [Example 129, Racemic 2-(2-(2-Methoxy-4-(1-methyl-1H-pyrazol-4-yl)phenylamino)pyrido[3,4-d]pyrimidin-8-ylamino)propan-1-ol]"
10,6,"COc1cc(-c2cnc(C)n2C)ccc1Nc1cc2c(-c3cnn(C)c3)cccc2cn1 [Example 10, N-(4-(1,2-dimethyl-1H-imidazol-5-yl)-2-methoxyphenyl)-5-(1-methyl-1H-pyrazol-4-yl)isoquinolin-3-amine]"
11,3,"COc1cc(-c2cnn(C)c2)ccc1Nc1ncc2ccnc(NC(C)C3CCOC3)c2n1 (racemic) [Example 125, Racemic N^2-(2-methoxy-4-(1-methyl-1H-pyrazol-4-yl)phenyl)-N^8-(1-(tetrahydrofuran-3-yl)ethyl)pyrido[3,4-d]pyrimidine-2,8-diamine]"
